Reference: patent publication US6492180B2, “Non-invasive transdermal detection of analytes” (priority 1998, dated 2002)

Key:
rats [1] = assay: In vivo extraction of lead through the skin of lead-fed rats with NMP hydrogel; blood lead; design: species or system rat; conditions: Sprague Dawley rats, 750-1,000 ppm lead acetate in water supply, tail vein blood, for several weeks
Description: Determinations of blood lead (Pb) concentrations were conducted by obtaining a blood sample from the tail vein of the animals and analyzing them using an ESA brand LeadCare® Analyzer (Chelmsford, Mass.).
At that time, a clear hydrogel formulation containing 1 gram of the copolymer Pluronic® F127 (BASP), and 2.0 mL of deionized water and 2.0 mL of N-methyl pyrrolidone (Pharmasolve®, ISP, Wayne, N.J.) was prepared. Approximately 1.2 grams of hydrogel was applied to a 2.4 cm diameter polypropylene plastic disk. The disks were attached to a jacket which was affixed to the backs of the rats. The disks were removed after 1 hour.

rats [2] = assay: Detection of 14C-caffeine administered to rats: tissue radioactivity and hydrogel extraction; format: in vivo, rat; conditions: 2.5 hours
Description: Rats were shaven and fasted for 24 hours prior to caffeine administration by intraperitoneal injection of ^14C labeled caffeine to the 600 gram rats. Each animal received approximately 16.7 μCi of ^14C caffeine via intraperitoneal injection of 0.5 mL of ethanol and water.
A 50% NMP:50% water-Pluronic® F127 hydrogel was applied to 2.4 cm diameter plastic disks. The disks were attached to a jacket which was affixed to the backs of the rats. The disks were removed after 2.5 hours. The gel was removed and counted. The rats were sacrificed and blood and tissue were removed for analysis from each animal. The tissue samples were placed in liquid scintillation vials with 1.5 mL of Soluene® (Packard Instruments, Downers Grove, Ill.) in order to dissolve the tissues for valid liquid scintillation counting.

[3] = In vitro 3H-cocaine transport through swine skin, diffusion cells; format: in vitro ADME; conditions: donor 20 μCi/ml, receptor 50% NMP:H2O
Description: The receptor solution (50% NMP:H2O) was loaded in the lower chamber. Samples from the lower chamber (100 μl) were taken every hour and counted.

[4] = rat, about 16.7 μCi 14C caffeine i.p.

SMILES: CC(=O)[O-].CC(=O)[O-].[Pb+2] [lead acetate]
- blood lead levels (rats [1]): 50 to 60 µg/dL

SMILES: Cn1c(=O)c2c(ncn2C)n(C)c1=O [^14C caffeine, caffeine]
- Radioactivity (mean dpm ± SD), NMP-Pluronic F127 Hydrogel (rats [2]; extracted through rat skin into 50% NMP:50% water-Pluronic F127 hydrogel): 58.82 dpm/cm^2/hr
- Radioactivity (mean dpm ± SD), Blood (rats [2]; [4]): 87.24 dpm/μL
- Radioactivity (mean dpm ± SD), Muscle (rats [2]; [4]): 64.30 ± 8.73 dpm/mg
- Radioactivity (mean dpm ± SD), Skin (rats [2]; [4]): 52.15 ± 0.07 dpm/mg

SMILES: COC(=O)[C@H]1[C@@H](OC(=O)c2ccccc2)C[C@@H]2CC[C@H]1N2C [^3H-cocaine, cocaine]
- flux through pig skin in vitro [3]: 0.00317 μg/cm^2/hr
